Measured values from US20250127918A1, “SITE-SELECTIVE CONJUGATION OF A PHARMACEUTICAL AGENT TO AN ANTIBODY USING AN AFFINITY PEPTIDE” (priority 2023, published 2025).

Legend:
[1] = system: mouse IgG; experiment: Azido transfer to mouse IgG in vivo (E1/E2 ELISA of serum); details: subcutaneous injection of 30 mg/kg, WT Swiss mice, serum at 24 h, listed as N3-2-I
Experimental: To evaluate the in vivo azido transfer in mice, two groups of mice were injected subcutaneously or intraperitoneally with the IgG-binder peptides. Mice were sacrificed at 24 hours post-injection, and the blood was collected for ELISA analysis. Sandwich ELISA assays. […] The percentage azido transfer was also compared with intraperitoneal injection of 10 mg/kg Z33-E20Hcy, intraperitoneal injection of 30 mg/kg of Z33-E20Hcy, subcutaneous injection of 30 mg/kg Z33-E20Hcy, and intraperitoneal injection of 30 mg/kg pegylated-Z33-E20Hcy (FIG. 2D).
Two sandwich ELISA assays have been developed in-house, one for the detection of the azido moiety conjugated mouse IgG (mIgG, E1), the other one for the detection of the whole mIgGs (modified and unmodified) in the sample (E2). Both E1 and E2 were run simultaneously on a same plate, using the same initial stock sample, and were processed in parallel at the same time for every steps. […] Absorbances were measured at 450 nm and 540 nm (A0=A450 nm-A540 nm) using a Spark microplate reader (Tecan, USA). The background noise (Ablank) from the serum was subtracted to get the final absorbance of the sample (Asample=A0-Ablank). The ratio Asample (E1)/Asample (E2) was calculated to estimate the percentage of azido transfer on the total amount of IgG in the sample. […]

[2] = system: Mouse IgG1; experiment: Small bioconjugation handle installation to other IgGs (Q-ToF LC-MS); type: biochemical; details: 20 equivalents, room temperature
Sequence of Mouse IgG1 (P01868 98-324 limits assumed): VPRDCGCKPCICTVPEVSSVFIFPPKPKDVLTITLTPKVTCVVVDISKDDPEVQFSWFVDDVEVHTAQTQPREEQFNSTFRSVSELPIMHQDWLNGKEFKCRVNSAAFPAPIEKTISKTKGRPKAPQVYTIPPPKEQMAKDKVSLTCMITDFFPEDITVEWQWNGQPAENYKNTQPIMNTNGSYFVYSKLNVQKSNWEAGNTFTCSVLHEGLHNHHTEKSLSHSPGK
Experimental: Reactions were performed on a 10 μL scale using 0.2 mL PCR tubes (FIG. 64). First, the electrophile-attached Z33 peptide reagent was dissolved in water to prepare a 2 mg/mL solution. IgG (human WN1 (prepared as previously described (ChemBioChem, 19, 2039-2044 (2018)), denosumab (Invitrogen), dupilumab (Invitrogen), or mouse IgG1 (Invitrogen, subtype controlled)), electrophile-attached Z33 peptide reagent (2 mg/mL), HEPES buffer (pH 8.5), and NaCl solution were added to achieve final concentrations of 5 μM, 100 μM, 100 mM, and 200 mM. The contents were mixed using a 5 μL pipette and incubated at room temperature in the dark for 24 hours. The resulting reaction solution was quenched with a 100 mM Tris buffer and analyzed by LC-MS (FIGS. 53A to 53D, Table 10). Sample preparation for LC-MS analysis was performed in the same manner as previously described.
Reactions were performed on a 10 μL scale using 0.2 mL PCR tubes. First, the electrophile-attached Z33 peptide reagent was dissolved in water to prepare a 2 mg/mL solution. Denosumab (Invitrogen), dupilumab (Invitrogen), or mouse IgG1 (Invitrogen, subtype controlled)), electrophile-attached Z33 peptide reagent (2 mg/mL), HEPES buffer (pH 8.5), and NaCl solution were added to achieve final concentrations of 5 μM, 100 μM, 100 mM, and 200 mM. […] The resulting reaction solution was quenched with a 100 mM Tris buffer and analyzed by LC-MS. […]

Q: Which “Azido transfer to mouse IgG in vivo (conversion rate)” value [1] does the source give for “FNMQQQRRFYEALHD PNLNHcyEQRNAKIKSI RDD [PEL-21]” here?
A: Its value is 33±12%.

Q: What about the “Light chain total conversion” value ([2]; HEPES pH 8.5, first column so headed) of the same sequence?
A: Its value is 2%.

Q: What about the “Light chain total conversion” value ([2]; HEPES pH 8.5, second column so headed) of the same sequence?
A: The value was 69%.
